Test results from publication PMC3570346, “PET imaging of brain inflammation during early epileptogenesis in a rat model of temporal lobe epilepsy” (EJNMMI Research, 2012).

Experiments:
[1] = molecular target: T1, Translocator protein (TSPO) (Rattus norvegicus, UniProt P16257); experiment: In vivo [^18F]-PBR111 PET imaging, Vt by two-compartment model with metabolite-corrected plasma input; set-up: Tissue distribution volume (Vt): unit not given here
T1 construct: from tissue; host or cells: brain of living male Wistar rats (control and kainic acid-induced status epilepticus)
From the text: Seven days post-SE, rats were anaesthetised for PET imaging using isoflurane (induction 5%, maintenance 1% to 3%, in medical oxygen), and body temperature was maintained using a feedback-regulated heating pad. A catheter was implanted in the femoral artery as described above. The animal was then placed into the field-of-view of the INVEON PET/CT scanner (Siemens Medical Solutions, Knoxville, TN, USA), and physiological parameters (heart rate, respiration and body temperature) were monitored (BioVet, m2m Imaging Corp., Cleveland, OH, USA) for the entire scanning period. To avoid movement and fix tubing, the animal was restrained in the supine position using a webbed sock and adhesive tape.
The PET scan was started 20 to 30 s before the 1-min infusion of radiotracer (ID = 12.5 to 29.0 MBq, 0.05 to 0.29 nmol, max 0.4 ml in volume, as described above) for the duration of 60 min. Femoral arterial blood samples (approximately 50 μl/sample) were taken at 15-s intervals for 4 min after the commencement of the PET scan, and then at 10-, 20-, 30- and 50-min post-injections. In the last sample (100 μl), metabolites were analysed to confirm the standard metabolite correction and to calculate the partition coefficient at 50 min. Heparinised saline (20 IU) was administered after blood sampling to maintain the blood volume and to prevent hypotension. Plasma samples were collected after 10-min centrifugation of whole blood at 3,000 rpm. Whole blood and plasma samples were counted in a Wallac γ-counter, decay-corrected and weight-normalised. At the end of the PET scanning, a 10-min 70 kV/500 μA computed tomography (CT) scan was performed on each animal (for co-registration with PET data and magnetic resonance imaging (MRI) atlas).
Coincidence events were acquired into list mode files and then histogrammed into […] consecutive frames of variable duration (8 × 15 s, 6 × 20 s, 6 × 60 s, 3 × 180 s, and 5 × 500 s). The volumes were then reconstructed with an iterative algorithm 3D-OSEM/FastMap. PET images (128 × 128 × 159) were co-registered with CT scans and mapped to a MRI-based rat brain atlas. Left and right time activity curves (TACs) were derived from eight VOIs such as the frontal cortex, striatum, parietal cortex, hippocampus, thalamus, amygdala, occipital cortex and colliculi using the Anatomist package ( http://brainvisa.info). Also, the hypothalamus, brainstem, pons and cerebellum were extracted from the reconstructed images. Data were then converted into activity concentration (kBq/ml) using cross calibration factors.
Firstly, a two-compartment model was used to assess the ‘apparent’ volume of distribution (Vt), or the ‘volume’ of the tracer would occupy if the tracers were to adopt the same concentration in the tissue as in the blood. For each VOI, Vt was calculated using their TACs, the metabolite-corrected plasma curve as input function and the whole blood curve to model the kinetics of the vascular fraction (5%) in the cerebral tissue.

[2] = [^18F]-PBR111 metabolite analysis in plasma (solid phase extraction); assay type: in vivo, rat; conditions: 50-min post-injection
From the text: To establish a standard curve of [^18F]-PBR111 metabolism, blood samples were obtained in four control rats (304 ± 10 g) and six KASE rats (312 ± 8 g, minor to medium SE), which were maintained under anaesthesia to mimic the conditions of the PET scan (Table 1). Animals were anaesthetised with 5% isoflurane for induction and 1% to 3% for maintenance, administered in medical oxygen. An incision was made in the inner thigh of the hind leg, and the femoral artery was exposed and loosely tied off after blunt dissection of the surrounding tissue. A polyethylene cannula filled with heparinised saline (20 IU/ml) was placed into the femoral artery and threaded 3 cm proximally.
Animals were injected intravenously with [^18F]-PBR111 (injected dose (ID) = 14.1 to 38.7 MBq). […] The line was flushed with saline, and the remaining radioactivity was measured in the line and syringe. […] Plasma samples (0.1 ml) were weighed and the radioactivity was measured in a Wallac γ-counter. […]
SPE analysis was performed on Oasis cartridges (Waters Oasis® HLB, 30 μm, 60 mg) that were preconditioned with 1 ml ethanol followed by 5 ml water. […] The radioactivity in each fraction and that remaining on the cartridge was measured with a Wallac γ-counter. Data were expressed as the percentage of unmetabolised parent compound (^18F]-PBR111) in the plasma sample. […]

[3] = Stability of [^18F]-PBR111 in whole rat blood (1 h on the bench); assay type: in vitro ADME; conditions: samples from 2- and 5-min post-injection left on the bench for 1 h vs processed immediately
Procedure: Animals were injected intravenously with [^18F]-PBR111 (injected dose (ID) = 14.1 to 38.7 MBq). The tracer was infused via the dorsal penile vein (maximum volume of 0.3 ml) using a Harvard Apparatus Pump 11 plus syringe pump (Holliston, MA, USA) over a constant time interval of 1 min. The line was flushed with saline, and the remaining radioactivity was measured in the line and syringe. Different ranges of tracer mass (0.07 to 4.00 nmol) were injected to evaluate whether this would affect the tracer metabolism. Arterial blood samples (0.2 ml) were withdrawn via a cannula implanted in the femoral artery from 2 to 60 min after the start of injection. The whole blood was then centrifuged at 3,000 rpm for 10 min, and the plasma was collected. Plasma samples (0.1 ml) were weighed and the radioactivity was measured in a Wallac γ-counter. At 2- and 5-min post-injections, the samples were taken in duplicate. One sample was left on the bench for 1 h, and the other was processed immediately to evaluate the stability in whole rat blood.

[4] = molecular target: T2, TSPO (Rattus norvegicus, UniProt P16257); experiment: In vitro [^125I]-CLINDE autoradiography on coronal brain sections (post-mortem); assay type: binding
T2 construct: from tissue; host or cells: coronal cryostat sections (20 μm) of frozen rat brain, control and KASE animals
Procedure: TSPO binding density was assessed using the selective TSPO ligands, ^125I]-CLINDE and ^18 F]-PBR111 as described previously. Briefly, adjacent sets of unfixed […] sections were incubated in triplicate with 3 nM ^125I]-CLINDE or 4 nM ^18F]-PBR111 in 50 mM Tris buffer (pH 7.4 at 4°C) for 1 h. Non-specific binding was assessed with co-incubation with 10 μM PK11195 (Sigma-Aldrich). Sections were washed in ice cold Tris buffer (2 × 2 min), then distilled water (1 min), before being air dried on a slide warmer at 37°C. They were exposed to film, with ^14C] polymer standards (ARC, USA) for calibration of optical density to becquerel per milligram activity. Films were scanned using a BioRad GS-800 calibrated densitometer (Bio-Rad Laboratories, Hercules, CA, USA), and exposure times were chosen such that the optical density range of the sections was within the pseudolinear response range of the film.
Autoradiographic images were calibrated (cubic fit between optical density and [^14C]-standard values) and quantified using ImageJ ( http://rsbweb.nih.gov/ij/). […] Regions of interest were drawn blinded for control and KASE groups, converted to kilobecquerel per milligram and specific binding calculated.
Coronal brain sections (20 μm, −3.24 mm from bregma according to [21]) were cut using a cryostat, thaw-mounted onto Polysine® microscope slides (LabServ, Australia), and stored at −80°C. During cutting, pictures were taken in EB-injected animals to evaluate extravasation macroscopically. Adjacent sets of unfixed rat brain sections were analysed in triplicate for quantitative autoradiography for TSPO with ^125I]-CLINDE, OX-42 (microglial activation) immunohistochemistry and cresyl violet (cell loss).
Methodology regarding immunohistochemistry was performed as above. Semi-quantitative analysis included visual scoring of OX-42 signal as follows: mild (+), moderate (++) and intense (+++) OX-42 signals. For autoradiography, a preincubation step of 15 min in Tris buffer (50 mM, pH 7.4) was added to remove exogenous TSPO ligand. TSPO binding was assessed as described above in the cortex, corpus callosum, hippocampus and hippocampal subregions (CA1, CA2 and CA3/hilus), thalamus, hypothalamus, amygdala and piriform cortex. Histological verification of cell loss in hippocampal pyramidal cell layers (CA1, CA2, CA3 and hilus) was performed on Nissl-stained sections (using Cresyl Echt Violet) blinded for the treatment group.

T2 sequence (P16257 whole entry): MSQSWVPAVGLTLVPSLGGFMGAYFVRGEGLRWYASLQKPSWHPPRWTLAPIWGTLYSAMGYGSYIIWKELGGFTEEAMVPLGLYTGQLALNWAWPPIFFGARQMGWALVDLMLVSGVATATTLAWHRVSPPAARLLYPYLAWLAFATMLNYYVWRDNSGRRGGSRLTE
T1 sequence (P16257 whole entry): as above

CCN(CC)C(=O)Cc1c(-c2ccc(OCCC[18F])cc2)nc2ccc(Cl)cn12 [[^18F]-PBR111]
Increase (%) of Vt, KASE vs control ([1]; Amygdala, Left): 288% | Tissue distribution volume (Vt) ([1]; Amygdala, Left, Control (N = 4)): 5.3 ± 0.8 | Tissue distribution volume (Vt) ([1]; Amygdala, Left, KASE (N = 4), 7 days post-SE): 20.6 ± 2.8 | Increase (%) of Vt, KASE vs control ([1]; Amygdala, Right): 284% | Tissue distribution volume (Vt) ([1]; Amygdala, Right, Control (N = 4)): 6.1 ± 0.7 | Tissue distribution volume (Vt) ([1]; Amygdala, Right, KASE (N = 4), 7 days post-SE): 23.4 ± 4.8 | Increase (%) of Vt, KASE vs control ([1]; Brainstem): 41% | Tissue distribution volume (Vt) ([1]; Brainstem, Control (N = 4)): 4.7 ± 0.8 | Tissue distribution volume (Vt) ([1]; Brainstem, KASE (N = 4), 7 days post-SE): 6.7 ± 1.0 | Increase (%) of Vt, KASE vs control ([1]; Cerebellum): 43% | Tissue distribution volume (Vt) ([1]; Cerebellum, Control (N = 4)): 7.5 ± 0.8 | Tissue distribution volume (Vt) ([1]; Cerebellum, KASE (N = 4), 7 days post-SE): 10.6 ± 1.3 | Increase (%) of Vt, KASE vs control ([1]; Colliculi, Left): 44% | Tissue distribution volume (Vt) ([1]; Colliculi, Left, Control (N = 4)): 4.0 ± 1.0 | Tissue distribution volume (Vt) ([1]; Colliculi, Left, KASE (N = 4), 7 days post-SE): 5.8 ± 1.1 | Increase (%) of Vt, KASE vs control ([1]; Colliculi, Right): 70% | Tissue distribution volume (Vt) ([1]; Colliculi, Right, Control (N = 4)): 4.1 ± 1.1 | Tissue distribution volume (Vt) ([1]; Colliculi, Right, KASE (N = 4), 7 days post-SE): 6.9 ± 1.8 | Increase (%) of Vt, KASE vs control ([1]; Frontal cortex, Left): 108% | Tissue distribution volume (Vt) ([1]; Frontal cortex, Left, Control (N = 4)): 5.4 ± 1.0 | Tissue distribution volume (Vt) ([1]; Frontal cortex, Left, KASE (N = 4), 7 days post-SE): 11.3 ± 2.4 | Increase (%) of Vt, KASE vs control ([1]; Frontal cortex, Right): 98% | Tissue distribution volume (Vt) ([1]; Frontal cortex, Right, Control (N = 4)): 5.7 ± 1.2 | Tissue distribution volume (Vt) ([1]; Frontal cortex, Right, KASE (N = 4), 7 days post-SE): 11.2 ± 2.4 | Increase (%) of Vt, KASE vs control ([1]; Hippocampus, Left): 154% | Tissue distribution volume (Vt) ([1]; Hippocampus, Left, Control (N = 4)): 3.6 ± 0.5 | Tissue distribution volume (Vt) ([1]; Hippocampus, Left, KASE (N = 4), 7 days post-SE): 9.1 ± 1.1 | Increase (%) of Vt, KASE vs control ([1]; Hippocampus, Right): 159% | Tissue distribution volume (Vt) ([1]; Hippocampus, Right, Control (N = 4)): 3.6 ± 0.4 | Tissue distribution volume (Vt) ([1]; Hippocampus, Right, KASE (N = 4), 7 days post-SE): 9.4 ± 1.6 | Increase (%) of Vt, KASE vs control ([1]; Hypothalamus): 104% | Tissue distribution volume (Vt) ([1]; Hypothalamus, Control (N = 4)): 4.0 ± 0.7 | Tissue distribution volume (Vt) ([1]; Hypothalamus, KASE (N = 4), 7 days post-SE): 8.2 ± 1.4 | Increase (%) of Vt, KASE vs control ([1]; Occipital cortex, Left): 53% | Tissue distribution volume (Vt) ([1]; Occipital cortex, Left, Control (N = 4)): 9.8 ± 3.4 | Tissue distribution volume (Vt) ([1]; Occipital cortex, Left, KASE (N = 4), 7 days post-SE): 15.1 ± 3.5 | Increase (%) of Vt, KASE vs control ([1]; Occipital cortex, Right): 62% | Tissue distribution volume (Vt) ([1]; Occipital cortex, Right, Control (N = 4)): 9.3 ± 1.4 | Tissue distribution volume (Vt) ([1]; Occipital cortex, Right, KASE (N = 4), 7 days post-SE): 15.0 ± 1.4 | Increase (%) of Vt, KASE vs control ([1]; Parietal cortex, Left): 110% | Tissue distribution volume (Vt) ([1]; Parietal cortex, Left, Control (N = 4)): 4.5 ± 0.6 | Tissue distribution volume (Vt) ([1]; Parietal cortex, Left, KASE (N = 4), 7 days post-SE): 9.5 ± 1.1 | Increase (%) of Vt, KASE vs control ([1]; Parietal cortex, Right): 136% | Tissue distribution volume (Vt) ([1]; Parietal cortex, Right, Control (N = 4)): 4.9 ± 0.8 | Tissue distribution volume (Vt) ([1]; Parietal cortex, Right, KASE (N = 4), 7 days post-SE): 11.6 ± 2.0 | Increase (%) of Vt, KASE vs control ([1]; Pons): 78% | Tissue distribution volume (Vt) ([1]; Pons, Control (N = 4)): 4.2 ± 0.9 | Tissue distribution volume (Vt) ([1]; Pons, KASE (N = 4), 7 days post-SE): 7.5 ± 1.8 | Increase (%) of Vt, KASE vs control ([1]; Striatum, Left): 180% | Tissue distribution volume (Vt) ([1]; Striatum, Left, Control (N = 4)): 2.8 ± 0.6 | Tissue distribution volume (Vt) ([1]; Striatum, Left, KASE (N = 4), 7 days post-SE): 8.0 ± 1.2 | Increase (%) of Vt, KASE vs control ([1]; Striatum, Right): 156% | Tissue distribution volume (Vt) ([1]; Striatum, Right, Control (N = 4)): 3.0 ± 0.5 | Tissue distribution volume (Vt) ([1]; Striatum, Right, KASE (N = 4), 7 days post-SE): 7.8 ± 1.1 | Increase (%) of Vt, KASE vs control ([1]; Thalamus, Left): 173% | Tissue distribution volume (Vt) ([1]; Thalamus, Left, Control (N = 4)): 2.6 ± 0.5 | Tissue distribution volume (Vt) ([1]; Thalamus, Left, KASE (N = 4), 7 days post-SE): 7.0 ± 1.8 | Increase (%) of Vt, KASE vs control ([1]; Thalamus, Right): 155% | Tissue distribution volume (Vt) ([1]; Thalamus, Right, Control (N = 4)): 2.8 ± 0.5 | Tissue distribution volume (Vt) ([1]; Thalamus, Right, KASE (N = 4), 7 days post-SE): 7.1 ± 1.4 | Percentage of parent compound in plasma ([2]; control animals): 20.8 ± 1.3% | Percentage of parent compound in plasma ([2]; severe SE animals): 20.1 ± 1.3% | Stability in whole rat blood [3]: not further metabolised in vitro in whole rat blood

CCN(CC)C(=O)Cc1c(-c2ccc(I)cc2)nc2ccc(Cl)cn12 [[^125I]-CLINDE]
% increase of specific binding, KASE vs control ([4]; Hippocampus (CA1)): 613% | % increase of specific binding, KASE vs control ([4]; Hippocampus (CA2)): 491% | % increase of specific binding, KASE vs control ([4]; Hippocampus (CA3)/hilus): 860% | % increase of specific binding, KASE vs control ([4]; Hippocampus (whole, dorsal)): 226%
